Reference: patent US20250146022A1, “STABILISING THE HUMAN SPINDLE BY KIFC1/HSET” (MAX-PLANCK-GESELLSCHAFT ZUR FOERDERUNG DER WISSENSCHAFTEN …, priority 2021, published 2025)

System: human oocytes
Experiment: Live imaging of spindle assembly and chromosome segregation in human oocytes microinjected with KIFC1/HSET (mClover3-HSET)
Format: cell-based
Protocol: As shown in various Figures herein and specifically referred in Example 2, the bipolar meiotic spindle is assessed or detected by fluorescence microscopy or polarized light microscopy. In practice, the oocyte is not is typically not assessed by fluorescence microscopy, when the oocyte is used for in vitro fertilization at a later stage as this would require sacrificing the oocytes for analysis. The change in probability represents a characteristic of human oocytes when KIFC1/HSET is introduced into the human oocyte. […] Similarly, it is also expected that KIFC1/HSET stabilizes the mitotic spindle in human zygotes. The skilled person is aware of how to determine the duration of spindle pole instability and is provided with further guidance in Example 2 herein. Briefly, the duration of spindle pole instability refers to the duration of excessive spindle pole remodeling after early spindle bipolarization. In the case of human oocytes, the remodeling is largely the widening or fragmentation of spindle poles, which results in apolar or multipolar spindle. The start and end points are determined from the videos based on the first and last time points in which the spindle was not bipolar.
Anaphase onset refers to the time point before chromosome separation was first observed, as defined in the inventors previous study (2). […] Thus, there was a difference of 30.6% relative to the starting percentage of 44%. In other words, the human oocytes in FIG. 8D into which KIFC1/HSET has been introduced have a 1.7 fold (75%/44%) higher probability of aligned chromosomes at anaphase onset in comparison to an oocyte without introduced KIFC1/HSET.
In general, lagging chromosomes during anaphase are known in the art and are a consequence of chromosomes or chromatids not properly separating from each other. […] Lagging chromosomes are therefore a common cause of aneuploidy. […] Specifically, 33.3% of oocytes without introduced KIFC1/HSET had no lagging: chromosomes, while 62.5% of oocytes with introduced KIFC1/HSET had no lagging chromosomes. Thus, there was a difference of 29.5% based on the starting percentage of 33%. In other words, the human oocytes in FIG. 8E into which KIFC1/HSET has been introduced have a 1.9 fold (62.5%/33.3%) higher probability of aligned chromosomes at anaphase onset in comparison to an oocyte without introduced KIFC1/HSET.
To confirm that the lack of KIFC1/HSET is a major contributor to spindle instability in human oocytes, the inventors introduced KIFC1/HSET into human oocytes in FIG. 8. To visualize the dynamics of microtubules and chromosomes using live cell imaging, human oocytes were stained with 5′-SiR-tubulin and SPY555-DNA, respectively. […] The inventors also quantified the frequency of misaligned chromosomes at anaphase onset (FIG. 8D) and lagging chromosomes (FIG. 8E) in human oocytes non-injected and injected with KIFC1/HSET. […] Together, the inventors infer that the introduction of KIFC1/HSET stabilized the meiotic spindle and reduced the risk of aneuploidy in human oocytes.
The use of unfertilized human oocytes in this study was approved by the UK's National Research Ethics Service under the REC reference 11/EE/0346 (IRAS Project ID 84952) and the Ärztekammer Niedersachsen (Ethics Committee of Lower Saxony) under the reference 15/2016. Oocytes were collected from patients who underwent ovarian stimulation for intracytoplasmic sperm injection (ICSI) as part of their assisted reproduction treatment at the Bourn Hall Clinic or Kinderwunschzentrum Göttingen or Fertility Center Berlin. Only oocytes that were immature at the time of ICSI and thus unsuitable for the procedure were used in this study. All patients gave informed consent for their surplus oocyte(s) to be used in this study. Oocytes were cultured as previously described (1). Briefly, within 3-5 h after retrieval from ovaries, oocytes were transferred into G-MOPS (Vitrolife) supplemented with 10% FBS under paraffin oil at 37° C. […]

For “KIFC1/HSET: Recombinant mClover3-tagged human kinesin-14 KIFC1/HSET protein (SEQ ID NO: 1), expressed in 293 cells, microinjected into human oocytes and zygotes”, the “fold higher probability of aligned chromosomes at anaphase onset vs oocyte without introduced KIFC1/HSET (FIG. 8E, lagging chromosomes)” value (62.5%/33.3%, FIG. 8E) was 1.9 fold, the “fold higher probability of aligned chromosomes at anaphase onset vs oocyte without introduced KIFC1/HSET” value (75%/44%, FIG. 8D) was 1.7 fold and the “difference in oocytes with no lagging chromosomes” value (based on the starting percentage of 33%) was 29.5%. For the same substance, the “time of early spindle bipolarization after onset of microtubule nucleation” value (injected human oocytes, non-injected 2.4 h, p=0.7197, FIG. 8B) was 2.65 h, the “duration of spindle pole instability” value (injected human oocytes, non-injected 10.3 h, p<0.0001, FIG. 8C) was 3.4 h and the “proportion of human oocytes with no lagging chromosome” value (oocytes with introduced KIFC1/HSET, without 33.3%, FIG. 8E) was 62.5%. The “proportion of human oocytes with aligned chromosomes at anaphase onset” value (oocytes with introduced KIFC1/HSET, without 44.4%, FIG. 8D) was 75% and the “difference in oocytes with aligned chromosomes at anaphase onset” value (relative to the starting percentage of 44%) was 30.6%.
